According to PubChem BioAssay (NCI):
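In this assay, cells in 96-well plates receive the compound at five concentrations for 48 hours. Endpoints are linearly interpolated between the surrounding concentrations. TGI denotes the concentration required for complete inhibition of growth.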

Assays:
Assay in all cases: NCI tumour cell line growth inhibition, 48 h
NCI-H522 lung = tested on: NCI-H522 lung
SF-539 CNS = tested on: SF-539 CNS
MDA-MB-435 = tested on: MDA-MB-435
KM12 colon = tested on: KM12 colon
SR leukemia = tested on: SR leukemia
OVCAR-4 ovarian = tested on: OVCAR-4 ovarian
M19-MEL melanoma = tested on: M19-MEL melanoma
KM20L2 colon = tested on: KM20L2 colon
HOP-18 NSCLC = tested on: HOP-18 NSCLC
DLD-1 colon = tested on: DLD-1 colon
DMS 273 small cell lung = tested on: DMS 273 small cell lung
SN12K1 renal = tested on: SN12K1 renal
P388/ADR leukemia = tested on: P388/ADR leukemia
P388 leukemia = tested on: P388 leukemia
XF 498 CNS = tested on: XF 498 CNS
SNB-78 CNS = tested on: SNB-78 CNS

Work on `NNC(=O)Nc1nc2ccc(NN)cc2[nH]1` yielded a TGI (NCI-H522 lung) of 92.6 µM, a TGI (SF-539 CNS) of 28.5 µM and a TGI (MDA-MB-435) of 54 µM. For the same compound, the TGI (KM12 colon) was 48.7 µM, the TGI (SR leukemia) was 43.2 µM and the TGI (OVCAR-4 ovarian) was > 100 µM.

For `O=C(Nc1sccc1S(=O)(=O)c1ccc(Cl)cc1)c1ccc(F)cc1F`, the TGI (NCI-H522 lung) was 51.9 µM, the TGI (SF-539 CNS) was 30.5 µM and the TGI (MDA-MB-435) was > 100 µM. For the same compound, the TGI (KM12 colon) was > 100 µM, the TGI (SR leukemia) was 40.9 µM and the TGI (OVCAR-4 ovarian) was 53.9 µM.

Work on `O=c1[nH]nc(-c2ccccc2)n1/N=C/c1ccc([N+](=O)[O-])o1` yielded a TGI (NCI-H522 lung) of 6.83 µM, a TGI (SF-539 CNS) of 15.7 µM and a TGI (MDA-MB-435) of 10.9 µM. The TGI (KM12 colon) was 23.2 µM, the TGI (SR leukemia) was > 100 µM and the TGI (OVCAR-4 ovarian) was 16.7 µM.

With `C#C[C@]1(O)CC[C@H]2[C@@H]3CCC4=C/C(=N/NC(=O)c5cccc6c(=O)c7ccccc7[nH]c56)CCC4[C@H]3CC[C@@]21C` (stereo partly specified) the TGI (NCI-H522 lung) was 86 µM, the TGI (SF-539 CNS) was > 100 µM and the TGI (MDA-MB-435) was > 100 µM. The TGI (KM12 colon) was > 100 µM, the TGI (SR leukemia) was > 100 µM and the TGI (OVCAR-4 ovarian) was > 100 µM.

For `C#CC[C@@]12CC(=O)C[C@@H]1CCC1(C2)OCCO1` (tested in a mixture with another compound), the TGI (NCI-H522 lung) was > 100 µM, the TGI (M19-MEL melanoma) was > 100 µM and the TGI (SF-539 CNS) was > 100 µM. The TGI (KM20L2 colon) was > 100 µM, the TGI (HOP-18 NSCLC) was > 100 µM and the TGI (DLD-1 colon) was > 100 µM. The TGI (DMS 273 small cell lung) was > 100 µM, the TGI (SN12K1 renal) was > 100 µM and the TGI (P388/ADR leukemia) was > 75 µM. For the same compound, the TGI (P388 leukemia) was > 59.7 µM, the TGI (XF 498 CNS) was > 100 µM and the TGI (KM12 colon) was > 100 µM. For the same compound, the TGI (SNB-78 CNS) was > 100 µM and the TGI (OVCAR-4 ovarian) was > 100 µM.

For `COC(=O)c1ccccc1C1CN=NC12Cc1c(ccc3c1CCC3)C2=O` (stereo unspecified), the TGI (NCI-H522 lung) was 43.7 µM, the TGI (SF-539 CNS) was > 100 µM and the TGI (MDA-MB-435) was 56.2 µM. The TGI (KM12 colon) was > 100 µM, the TGI (SR leukemia) was > 100 µM and the TGI (OVCAR-4 ovarian) was > 100 µM.

`C(/C=N/NC1=NCCCCN1)=N\NC1=NCCCCN1` was tested, and the TGI (NCI-H522 lung) was > 100 µM, the TGI (SF-539 CNS) was > 100 µM and the TGI (MDA-MB-435) was > 100 µM. The TGI (KM12 colon) was > 100 µM, the TGI (SR leukemia) was > 100 µM and the TGI (OVCAR-4 ovarian) was > 100 µM.

In the case of `CCOC(=O)C1CC(C(=O)c2ccccc2)N2c3ccccc3-c3ccccc3C12` (stereo unspecified), the TGI (NCI-H522 lung) is reported as > 100 µM, the TGI (SF-539 CNS) is reported as > 100 µM and the TGI (MDA-MB-435) is reported as > 100 µM. The TGI (KM12 colon) was > 100 µM, the TGI (SR leukemia) was 84.1 µM and the TGI (OVCAR-4 ovarian) was > 100 µM.

For `Fc1cccc(F)c1C1SCc2nc3cc(Cl)c(Cl)cc3n21` (stereo unspecified), the TGI (NCI-H522 lung) was > 100 µM, the TGI (SF-539 CNS) was > 100 µM and the TGI (MDA-MB-435) was > 100 µM. The TGI (KM12 colon) was > 100 µM, the TGI (SR leukemia) was > 100 µM and the TGI (OVCAR-4 ovarian) was > 100 µM.

For `O=C1c2cc(Cc3ccccc3)c(=O)c(Cc3ccccc3)cc2C(=O)c2cc(Cc3ccccc3)c(=O)c(Cc3ccccc3)cc21`, the TGI (NCI-H522 lung) was > 100 µM, the TGI (SF-539 CNS) was > 100 µM and the TGI (MDA-MB-435) was > 100 µM. For the same compound, the TGI (KM12 colon) was > 100 µM, the TGI (SR leukemia) was > 100 µM and the TGI (OVCAR-4 ovarian) was > 100 µM.

`Cn1cccc1-c1ccc(-c2ccc(CO)[se]2)[se]1` was tested, and the TGI (NCI-H522 lung) was 50.1 µM, the TGI (SF-539 CNS) was > 82.9 µM and the TGI (MDA-MB-435) was 18.7 µM. The TGI (KM12 colon) was 50.5 µM, the TGI (SR leukemia) was 56.9 µM and the TGI (OVCAR-4 ovarian) was 53.8 µM.

In the case of `O=[N+]([O-])c1ccc(NN=C2CN3CCN(C2)c2ccccc23)c([N+](=O)[O-])c1`, the TGI (NCI-H522 lung) is reported as > 100 µM, the TGI (SF-539 CNS) is reported as > 100 µM and the TGI (MDA-MB-435) is reported as > 100 µM. The TGI (KM12 colon) was > 100 µM, the TGI (SR leukemia) was > 100 µM and the TGI (OVCAR-4 ovarian) was > 100 µM.

With `Cc1cccc2c(N)c3cccc(C(=O)NCC[N+](C)(C)Cc4ccc([N+](=O)[O-])s4)c3nc12` the TGI (NCI-H522 lung) was 28.2 µM, the TGI (SF-539 CNS) was 23.9 µM and the TGI (MDA-MB-435) was > 63.9 µM. The TGI (KM12 colon) was > 54.3 µM, the TGI (SR leukemia) was 5.7 µM and the TGI (OVCAR-4 ovarian) was 25.1 µM.

With `O=C(O)CSc1ccccc1C(=O)O` the TGI (NCI-H522 lung) was > 100 µM, the TGI (SF-539 CNS) was > 100 µM and the TGI (MDA-MB-435) was > 100 µM. For the same compound, the TGI (KM12 colon) was > 100 µM, the TGI (SR leukemia) was > 100 µM and the TGI (OVCAR-4 ovarian) was > 100 µM.

With `COC(=O)C1=C(OC(=O)/C(=C/c2ccccc2)c2ccc(OC)cc2)C(C(=O)OC)[C@@]2(O)[C@@H](C(=O)OC)[C@H](C)C[C@@H]1[C@@H]2C(=O)OC` (stereo partly specified) the TGI (NCI-H522 lung) was > 100 µM, the TGI (SF-539 CNS) was > 100 µM and the TGI (MDA-MB-435) was > 100 µM. The TGI (KM12 colon) was > 100 µM, the TGI (SR leukemia) was > 100 µM and the TGI (OVCAR-4 ovarian) was > 100 µM.

For `C[C@]12CC[C@H]3[C@@H](CCC4=CC(=O)C=C[C@@]43OC(=O)C(F)(F)F)[C@@H]1CCC2=O`, the TGI (NCI-H522 lung) was > 100 µM, the TGI (SF-539 CNS) was > 100 µM and the TGI (MDA-MB-435) was > 100 µM. The TGI (KM12 colon) was > 100 µM, the TGI (SR leukemia) was > 100 µM and the TGI (OVCAR-4 ovarian) was > 100 µM.

With `O=C1NC(=O)c2ccccc2/C1=C/c1ccc2c(c1)OCO2` the TGI (NCI-H522 lung) was > 100 µM, the TGI (SF-539 CNS) was 46.7 µM and the TGI (MDA-MB-435) was 50.1 µM. The TGI (KM12 colon) was 41 µM, the TGI (SR leukemia) was > 100 µM and the TGI (OVCAR-4 ovarian) was > 100 µM.

`CC(C)(C)OC(=O)NC12C3C4C1C1C2C3C41NC(=O)OC(C)(C)C` (stereo unspecified) was tested, and the TGI (NCI-H522 lung) was > 100 µM, the TGI (SF-539 CNS) was 93.9 µM and the TGI (MDA-MB-435) was > 100 µM. The TGI (KM12 colon) was 39.3 µM, the TGI (SR leukemia) was > 100 µM and the TGI (OVCAR-4 ovarian) was > 100 µM.
